Entries after “also recorded” stand apart in the source; their conditions may differ.
Key:
[1] = tested on: hepatocytes; assay: Daily IP injections of GC-1 in wild type C57BL/6 mice: hepatocyte proliferation, β-catenin activation, cyclin-D1; type: in vivo; details: vs DMSO control
Method: (§1) All studies on mice were performed in strict accordance with Guidelines. Eight-week old male C57BL/6 male mice (Jackson/Charles River) were maintained on a standard laboratory basal diet (Test Diet) (n=4), or fed a T3-supplemented diet (4 mg/Kg of diet, Sigma Chemicals, St. Louis Mo.) (n=4). GC-1 was administered to the eight week-old male C57BL/6 male mice either via GC-1-supplemented diet (5 mg/Kg of diet, Medchem Express) for 8 days (n=4) or via daily intraperitoneal injections (IP) of GC-1 dissolved in DMSO (0.3 mg/kg/dose) for 8 days (n=7). As a control group for injections, DMSO alone was injected daily intraperitoneal (IP) for 8 days (n=5). Mice were sacrificed 24 hours after the last injection.
(§2) To label dividing hepatocytes, BrdU (5-bromodeoxyuridine) dissolved in drinking water (1 mg/ml) was given to all animals throughout the experiment period. The animals were given food and water ad libitum with a 12-hour light/dark daily cycle.
(§3) Four micron liver sections were analyzed by immunohistochemistry for β-Catenin (BD Biosciences, San Jose, Calif.), Cyclin-D1 (Thermo-Scientific, Fremont, Calif.) and PCNA (Santa Cruz Biotechnology, Dallas, Tex.). Briefly, formalin-fixed sections were deparaffinized in graded xylene and alcohol. Endogenous peroxidase was inactivated using 3% hydrogen peroxide (Sigma). For β-Catenin, Cyclin-D1 staining, slides were microwaved in Citrate buffer followed by blocking with Superblock for 10 minutes. Sections were then incubated with secondary anti-mouse (for β-catenin) or anti-rabbit (for Cyclin-D1) horseradish peroxidase-conjugated antibody for 30 minutes.
For PCNA, slides were microwaved in zinc sulfate for 12 minutes, followed by blocking with Superblock for 20 minutes. Sections were incubated with PCNA antibody (Santa Cruz) diluted 1:4,000 in phosphate buffered saline (PBS) for 60 minutes. Slides then incubated with horse anti-mouse secondary antibody (1:700 dilution) for 30 minutes. ABC was applied for 30 minutes. DAB kit was then applied. Slides were then dehydrated, coverslips placed, and allowed to dry.
(§4) Bromodeoxyuridine (BrdU) was stained with mouse antibody (Becton Dickinson) as previously described (Fanti et al. (2014) Hepatology 59, 2309-2320). Briefly, tissue sections were deparaffinized, exposed to 0.3% hydrogen peroxide in deionized water for 10 minutes to block endogenous peroxidase, treated with 2N HCl, incubated with trypsin 0.1% for 20 minutes and then with normal goat serum for 20 minutes at room temperature. Sections were then incubated overnight in cold room with anti-BrdU monoclonal antibody, followed by biotinylated goat anti-mouse IgG. DAB kit was then applied, and sections were counterstained with hematoxylin. A small segment of intestine was included from each mouse as a positive control for the staining. For quantification of BrdU staining, at least 10 high power fields (400× or 600×) fields each from at least three biological replicates were counted as indicated in the figures. Statistical analysis was performed as described below.
Protein extraction from frozen liver tissue and western blot analysis were performed as previously described (Fanti et al., (2014) Hepatology 59, 2309-2320). For protein extraction, a small amount of frozen liver tissue was obtained (over dry ice) and was homogenized using RIPA buffer with protease and phosphatase inhibitor cocktail (Sigma, St. Louis, Mo.). Samples were transferred to a 1.5 ml tube on ice, and spun in cold room centrifuge at 14,000 RPM for 5 minutes. […]

[2] = Serum ALT/bilirubin and hepatic histology after GC-1 or T3; type: in vivo, mice
Method: as §1

[3] = tested on: hepatocytes; assay: T3- or GC-1-supplemented diet in wild type mice: hepatocyte proliferation; type: in vivo
Method: as §1, §2, §3, §4

[4] = tested on: hepatocytes; assay: GC-1 or T3 in hepatocyte specific β-catenin knockout mice (β-Cat LKO) and littermate controls; type: in vivo
Method: Eight to 10 week old male hepatocyte specific β-catenin knockout mice (β-cat-LKO) or sex-matched littermate controls obtained from breeding homozygous floxed β-catenin mice and albumin-cre transgenic mice (as described elsewhere (Tan et al., (2006) Gastroenterology 131, 1561-1572)) were given 8 daily IP injections of GC-1 (n=4) or DMSO (n=4) and harvested around 24 hours after the last injection.
as §2, §3, §4
Protein extraction from frozen liver tissue and western blot analysis were performed as previously described (Fanti et al., (2014) Hepatology 59, 2309-2320). For protein extraction, a small amount of frozen liver tissue was obtained (over dry ice) and was homogenized using RIPA buffer with protease and phosphatase inhibitor cocktail (Sigma, St. Louis, Mo.). Samples were transferred to a 1.5 ml tube on ice, and spun in cold room centrifuge at 14,000 RPM for 5 minutes. Pellet was then discarded and sample was aliquoted and stored at −80 C for use. Fifty micrograms of the proteins were resolved by sodium dodecyl sulfate-polyacrylamide gel electrophoresis analysis, and transferred to immobilon-polyvinylidene difluoride membranes.
The primary antibodies used were against β-catenin (BD Biosciences); pSer675-β-catenin, pSer552-β-catenin, Active-β-catenin (Cell-Signaling), Cyclin-D1 (Thermo-Scientific), and β-Actin (Sigma). Dilutions of primary antibody were done according to manufacturer recommendations (1:1000 for all except Cyclin-D1 which was 1:200). Horseradish peroxidase-conjugated secondary antibodies used were goat anti-mouse (1:20,000) and goat anti-rabbit (1:10,000) (Millipore). The proteins were detected by Super-Signal West Pico Chemiluminescense Substrate (Thermo Scientific, Rockford Ill.) and visualized by autoradiography.
Total RNA was extracted by homogenizing frozen liver tissues in Trizol reagent (Invitrogen, Carlsbad, Calif.) from GC-1-injected β-Cat LKO (n=4) and littermate control mice (n=4); and GC-1-injected LRP5-6 LKO (n=3) and littermate control mice (n=3). […]

[5] = tested on: hepatocytes; assay: as above; type: in vivo; details: control mice, GC-1 treated vs basal diet
[6] = tested on: preneoplastic hepatocytes; details: resistant-hepatocyte model of hepatocarcinogenesis (T3, rats); Ledda-Columbano 2000, Perra 2009; cited from earlier work
[7] = T3 (4 mg/Kg of diet) or GC-1 (5 mg/Kg of diet) chow 8 days, vs basal diet

Cc1cc(OCC(=O)O)cc(C)c1Cc1ccc(O)c(C(C)C)c1 [GC-1, Sobetirome]
PCNA-positive hepatocytes and BrdU incorporation (hepatocyte proliferation) ([1]; GC-1 0.3 mg/Kg/dose daily IP in DMSO, 8 days, 0.3 mg/kg): increased number of PCNA-positive hepatocytes as well as BrdU incorporation; also recorded: increased proliferation | P-Ser675-β-catenin level, Western blot of whole liver lysates ([1]; GC-1 0.3 mg/Kg/dose daily IP): increased | cyclin-D1 immunohistochemistry ([1]; GC-1 0.3 mg/Kg/dose daily IP): many positive hepatocytes | cyclin-D1 level, Western blot of whole liver lysates ([1]; GC-1 0.3 mg/Kg/dose daily IP): increased | total β-catenin level, Western blot ([1]; GC-1 0.3 mg/Kg/dose daily IP): did not show much difference | serum ALT or total bilirubin ([2]; GC-1 0.3 mg/Kg/dose daily IP 8 days, vs DMSO control): insignificant differences | hepatic histology (H&E) ([2]; GC-1 daily IP 8 days, vs DMSO control): normal hepatic histology | histological changes in the livers [2, 7]: no histological changes | hepatocyte proliferation relative to T3 ([3]; GC-1 diet versus T3 diet, 8 days): modestly less extent than T3 | BrdU incorporation [3, 7]: increased BrdU incorporation | cyclin-D1 staining in hepatocytes ([3]; T3 diet or IP GC-1, 8 days, vs respective controls): notably increased cyclin-D1 staining | cyclin-D1 staining in hepatocytes ([3]; T3 or GC-1 supplemented diet 8 days, vs basal diet): increased in both groups | BrdU-positive hepatocytes, T3 diet versus IP GC-1 ([3]; T3 supplemented diet versus IP GC-1, 8 days, p<0.001 between groups): overall fewer number of BrdU-positive hepatocytes | active β-catenin, Western blot ([4]; β-Cat LKO after T3 or GC-1 treatment): very faint signal | P-Ser675-β-catenin, Western blot ([4]; β-Cat LKO vs controls treated with GC-1 or T3): absent | nuclear cyclin-D1 by immunohistochemistry ([4]; β-Cat LKO vs controls, GC-1): notable decrease | BrdU incorporation in hepatocytes (hepatocyte proliferation) ([4]; β-Cat LKO vs littermate controls, GC-1 0.3 mg/Kg/dose IP, 8 days): decreased hepatocyte proliferation | BrdU incorporation in non-parenchymal cell population ([4]; β-Cat LKO, GC-1 IP): notable BrdU incorporation continued to occur | cyclin-D1 mRNA expression (RT-PCR) ([4]; β-catenin-LKO mice receiving GC-1 vs controls): significant decrease | active-β-catenin, Western blot [5]: notable increase | effect on preneoplastic lesions / carcinogenic process [6]: negatively influence the carcinogenic process

From patent US10780069B2, “Use of GC-1 in transplant related population” (University of Pittsburgh—Of the Commonwealth System of …, priority 2017, dated 2020)
